Test results reported in ChEMBL document CHEMBL1201862, “PubChem BioAssay data set” (2004).
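Five compound concentrations were applied to cells in 96-well plates for 48 hours; endpoints were derived by simple linear interpolation of the resulting dose-response curve. The concentration for 50% growth inhibition is given as GI50.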 The source made the active and inactive calls. Rule as the data show it: active = GI50 up to about 1.1 µM and inactive = higher.

Legend:
Experiment in all cases: growth of human tumour cells (NCI), 48 h
A549 = test system: A549
COLO 205 = test system: COLO 205
HCT-15 = test system: HCT-15
HOP-92 = test system: HOP-92
MOLT-4 = test system: MOLT-4
Malme-3M = test system: Malme-3M
NCI-H23 = test system: NCI-H23
NCI-H460 = test system: NCI-H460
NCI-H522 = test system: NCI-H522
OVCAR-3 = test system: OVCAR-3
OVCAR-8 = test system: OVCAR-8
SK-MEL-5 = test system: SK-MEL-5
SNB-75 = test system: SNB-75
U-251 = test system: U-251
UACC-257 = test system: UACC-257
UACC-62 = test system: UACC-62
UO-31 = test system: UO-31
Hs-578T = test system: Hs-578T
MDA-N = test system: MDA-N

| Structure (SMILES) | GI50 (A549) | GI50 (COLO 205) | GI50 (HCT-15) [µM] | GI50 (HOP-92) | GI50 (MOLT-4) | GI50 (Malme-3M) | GI50 (NCI-H23) | GI50 (NCI-H460) | GI50 (NCI-H522) | GI50 (OVCAR-3) | GI50 (OVCAR-8) | GI50 (SK-MEL-5) | GI50 (SNB-75) | GI50 (U-251) | GI50 (UACC-257) | GI50 (UACC-62) | GI50 (UO-31) | GI50 (Hs-578T) | GI50 (MDA-N) |
| --- | --- | --- | --- | --- | --- | --- | --- | --- | --- | --- | --- | --- | --- | --- | --- | --- | --- | --- | --- |
| OCCCCCNc1ccnc2cc(Cl)ccc12 | > 100 µM (inactive) | 33.7 µM (inactive) | > 100 | > 100 µM (inactive) | 24.6 µM (inactive) | > 100 µM (inactive) | > 100 µM (inactive) | 69.3 µM (inactive) | 87.5 µM (inactive) | 65.5 µM (inactive) | 64.1 µM (inactive) | 53.5 µM (inactive) | > 100 µM (inactive) | > 100 µM (inactive) | > 100 µM (inactive) | > 100 µM (inactive) | 24.2 µM (inactive) |  |  |
| COc1cc(Nc2nc3cc(C(F)(F)F)ccc3nc2-c2ccccc2)cc(OC)c1OC | 92.3 µM (inactive) | > 100 µM (inactive) | > 100 | 1.82 µM (inactive) | > 100 µM (inactive) | > 100 µM (inactive) | > 100 µM (inactive) | > 100 µM (inactive) | 37.8 µM (inactive) | 73.3 µM (inactive) | > 100 µM (inactive) | 34.4 µM (inactive) | 39.7 µM (inactive) | 57.4 µM (inactive) | 73.6 µM (inactive) | 75.2 µM (inactive) | > 100 µM (inactive) |  |  |
| CCN1C(=O)/C(=C\c2coc3ccccc3c2=O)SC1=S | > 100 µM (inactive) | > 100 µM (inactive) | 39.1 | > 100 µM (inactive) | > 100 µM (inactive) | > 100 µM (inactive) | 58.9 µM (inactive) | > 100 µM (inactive) | 91.4 µM (inactive) | > 100 µM (inactive) | > 100 µM (inactive) | > 100 µM (inactive) | 41.2 µM (inactive) | 28.3 µM (inactive) | > 100 µM (inactive) | 68.7 µM (inactive) | > 100 µM (inactive) |  |  |
| O=C(Nc1nc(C23CC4CC(CC(C4)C2)C3)cs1)c1cc2cc(Cl)ccc2oc1=O | > 100 µM (inactive) | > 100 µM (inactive) | > 100 | > 100 µM (inactive) | > 100 µM (inactive) | > 100 µM (inactive) | > 100 µM (inactive) | > 100 µM (inactive) | > 100 µM (inactive) | > 100 µM (inactive) | > 100 µM (inactive) | > 100 µM (inactive) | > 100 µM (inactive) | > 100 µM (inactive) | > 100 µM (inactive) |  | > 100 µM (inactive) | 71.1 µM (inactive) | > 100 µM (inactive) |
| CC(=O)ON(C(C)=O)C1C(COC(c2ccccc2)(c2ccccc2)c2ccccc2)OC2OC3(CCCC3)OC21 (stereo not drawn) | 4.59 µM (inactive) | > 23.2 µM (inactive) | 4.6 | 2.42 µM (inactive) | 3.15 µM (inactive) | > 89.7 µM (inactive) | 4.24 µM (inactive) | 6.75 µM (inactive) | 2.46 µM (inactive) | 5.37 µM (inactive) | 5.13 µM (inactive) | 6.3 µM (inactive) | 21.2 µM (inactive) | 6.47 µM (inactive) | 11.6 µM (inactive) | > 42 µM (inactive) | 5.36 µM (inactive) |  |  |
| CN(C)CN(C)c1nc(N(C)C)nc(N(C)C)n1 | > 100 µM (inactive) | > 100 µM (inactive) | > 100 | > 100 µM (inactive) | > 100 µM (inactive) | > 100 µM (inactive) | > 100 µM (inactive) | > 100 µM (inactive) | > 100 µM (inactive) | > 100 µM (inactive) | > 100 µM (inactive) | > 100 µM (inactive) | > 100 µM (inactive) | > 100 µM (inactive) | > 100 µM (inactive) | > 100 µM (inactive) | > 100 µM (inactive) |  |  |
| CCCCCC(=O)NC(=S)Nc1nnn[nH]1 | > 100 µM (inactive) | > 100 µM (inactive) | > 100 | > 100 µM (inactive) | > 100 µM (inactive) | > 100 µM (inactive) | > 100 µM (inactive) | > 100 µM (inactive) | > 100 µM (inactive) | > 100 µM (inactive) |  | > 100 µM (inactive) | > 100 µM (inactive) | > 100 µM (inactive) | > 100 µM (inactive) | > 100 µM (inactive) | > 100 µM (inactive) | > 100 µM (inactive) | > 100 µM (inactive) |
| C/C(C=O)=C/[C@@]1(C)O[C@@H](C)[C@@](C)(O)[C@@H]1O | > 100 µM (inactive) | 40.7 µM (inactive) | 22.2 | 37.2 µM (inactive) | 5.62 µM (inactive) | 52 µM (inactive) | 33.3 µM (inactive) | 22.2 µM (inactive) | 19 µM (inactive) | 49.1 µM (inactive) | 18.8 µM (inactive) | 64.6 µM (inactive) |  | > 100 µM (inactive) | 22.1 µM (inactive) | 43.7 µM (inactive) | 1.3 µM (inactive) | 49.5 µM (inactive) | 44.3 µM (inactive) |
| O=Cc1cc2sc(C=O)cc2s1 | > 100 µM (inactive) | > 100 µM (inactive) | > 100 | > 100 µM (inactive) | > 100 µM (inactive) | > 100 µM (inactive) | > 100 µM (inactive) | > 100 µM (inactive) | 93.3 µM (inactive) | > 100 µM (inactive) | > 100 µM (inactive) | > 100 µM (inactive) | > 100 µM (inactive) | > 100 µM (inactive) | > 100 µM (inactive) | 40.6 µM (inactive) | > 100 µM (inactive) |  |  |
| CC1=NC(C(C)C)C(=O)O1 (stereo not drawn) |  | 72.3 µM (inactive) | 34.4 | > 100 µM (inactive) | > 100 µM (inactive) | > 100 µM (inactive) | > 100 µM (inactive) | > 100 µM (inactive) | > 100 µM (inactive) | > 100 µM (inactive) | > 100 µM (inactive) | > 100 µM (inactive) | > 100 µM (inactive) | > 100 µM (inactive) | > 100 µM (inactive) | > 100 µM (inactive) | > 100 µM (inactive) |  |  |
| CCOC(=O)c1c(SCCCN2CCCCC2)n(-c2ccccc2)c(=S)n(-c2ccccc2)c1=O | 17.3 µM (inactive) | 16.4 µM (inactive) | 17.4 | 14.4 µM (inactive) | 7.26 µM (inactive) | 16.3 µM (inactive) | 18.6 µM (inactive) |  | 19.3 µM (inactive) | 16.7 µM (inactive) | 19.3 µM (inactive) | 16.4 µM (inactive) |  | 16.9 µM (inactive) |  | 4.28 µM (inactive) | 15.5 µM (inactive) | 20.9 µM (inactive) | 15 µM (inactive) |
| CN1C(c2ccccc2)CC(=O)C(N)C1c1ccccc1 (stereo not drawn) | 38.7 µM (inactive) | 18.5 µM (inactive) | 26.1 | 25.8 µM (inactive) | 20.1 µM (inactive) | 22.1 µM (inactive) | 42.5 µM (inactive) | 22.2 µM (inactive) | 17 µM (inactive) | 33.7 µM (inactive) | 26.8 µM (inactive) | 18.8 µM (inactive) | 63.5 µM (inactive) | 21.4 µM (inactive) | 30.3 µM (inactive) | 27.2 µM (inactive) | 25.5 µM (inactive) |  |  |
| N#Cc1ccccc1C#C/C=C\C#Cc1ccccn1 | 19.8 µM (inactive) | 27.4 µM (inactive) | 18.8 | 26.9 µM (inactive) |  | 19.3 µM (inactive) | 12.3 µM (inactive) | 20.4 µM (inactive) |  | 4.27 µM (inactive) | 13.1 µM (inactive) | 2.99 µM (inactive) | 24.8 µM (inactive) | 18.5 µM (inactive) | 13.7 µM (inactive) | 15.3 µM (inactive) | 15.3 µM (inactive) | 16.4 µM (inactive) |  |
| CCCCCCCCC(=O)CCCCCCCCC(=O)O | 19.7 µM (inactive) | 21.8 µM (inactive) |  | 18.9 µM (inactive) | 14.8 µM (inactive) | 31.3 µM (inactive) | 30.3 µM (inactive) | 21.3 µM (inactive) | 25.5 µM (inactive) | 18.8 µM (inactive) | 17.3 µM (inactive) | 15.5 µM (inactive) | 37.2 µM (inactive) | 25.1 µM (inactive) | > 100 µM (inactive) | 20.1 µM (inactive) | 33.3 µM (inactive) |  |  |
| COC1C(O)C(C)OC(O[C@H]2CC[C@@]3(C)C(CC[C@@H]4[C@@H]3CC[C@]3(C)[C@@H](C(C)OC5OC(CO)C(O)C(O)C5O)CC[C@]43O)C2)C1O (stereo partly drawn) | > 25 µM (inactive) |  | > 25 | > 25 µM (inactive) | > 25 µM (inactive) |  | > 25 µM (inactive) | > 25 µM (inactive) | > 25 µM (inactive) | > 25 µM (inactive) | > 25 µM (inactive) | > 25 µM (inactive) | > 25 µM (inactive) | > 25 µM (inactive) | > 25 µM (inactive) | > 25 µM (inactive) | > 25 µM (inactive) | > 25 µM (inactive) | > 25 µM (inactive) |
| O=S(O)CCCCSSCc1ccccc1CSSCCCCS(=O)O | 28.8 µM (inactive) | 15.5 µM (inactive) | 19.1 | 21.9 µM (inactive) | 0.904 µM (active) | 8.91 µM (inactive) | 18 µM (inactive) | 51.9 µM (inactive) | 4.43 µM (inactive) | 10.5 µM (inactive) | 17.1 µM (inactive) | 8.79 µM (inactive) | 9.16 µM (inactive) | 46.7 µM (inactive) | 3.87 µM (inactive) | 10.5 µM (inactive) | 11.1 µM (inactive) |  |  |
| COc1ccc(C2Oc3cc(OC)c(O)c(C)c3[C@H]2C)cc1 (stereo partly drawn) | > 100 µM (inactive) | > 100 µM (inactive) | 58.9 | > 100 µM (inactive) | 33.3 µM (inactive) | > 100 µM (inactive) | 57.3 µM (inactive) | 38.2 µM (inactive) | 35.2 µM (inactive) | > 100 µM (inactive) | 70 µM (inactive) | 62.7 µM (inactive) | 7.87 µM (inactive) | > 100 µM (inactive) | > 100 µM (inactive) | > 100 µM (inactive) | 17.1 µM (inactive) |  |  |
